Consider three compounds from article PMC5895803, “Inhibition of cancer stem cell like cells by a synthetic retinoid” (Nature Communications, 2018).

The test system of one series is B16-F1 TRCs. Description: Colony growth of B16-F1 TRCs in 90-Pa 3D soft fibrin gels. In kind it is cell-based, murine. Conditions: for IC50 lower / potency higher than that of Tazarotene: B16-F1 TRC growth; for inhibition at 10 µM / pIC50: Mus musculus; for inhibition at 10 µM: B16-F1, 10 μM, treated on day 0, day 5; for pIC50: B16-F1 in 90-Pa fibrin gels, treated on day 0, colony size on day 5; for Growth after re-plating into new soft fibrin gels without compound: washed out.

A further series deals with HaCaT cells. Nature of the series: Non-cancerous human epidermal HaCaT cells, 2D rigid dishes and 3D soft fibrin gels. In kind it is cell-based. As to conditions: for HaCaT cell numbers on 2D rigid plastic / HaCaT colony growth in 3D soft fibrin gel: 10 μM; for HaCaT colony growth in 3D soft fibrin gel: day 7; for Inhibitory effects towards non-cancerous HaCaT cells: 2D rigid dishes and 3D soft fibrin gels. As to the method: Supplementary Figure 21. WYC-209 has less inhibitory effects on non-cancerous human epidermal cell line HaCaT. (a) Non-cancerous human epidermal HaCaT cells were seeded into 3D soft fibrin gel and treated with 0.1, 1, or 10 μM of WYC-209, WYC-209A, or WYC-209B on day 0, and colony sizes were quantified on day 7.
Bright field images were representative images of colonies on day 7. Scale bars, 50 μm. (b) Quantitation of cell numbers per view field of HaCaT cells plated on 2D rigid plastic. Cell nucleus were stained with DAPI. None: medium only; DMSO: medium containing 0.1% DMSO. Mean ± s.e.m.; n= 5 samples; 3 separate experiments; * P<0.05, *** P<0.001 (Student’s t-test). Note that even at 10 μM concentration no […]
compounds have less inhibitory effects on these non-cancerous human epidermal […]
(§1) (1 picture or pasted object on this page, not shown here)

In the next series the target is T1, CYP 1A2 (Homo sapiens, UniProt P05177).
T1 construct: from tissue; host or cells: human liver microsomes
Nature of the series: Cytochromes enzyme inhibition assay, human liver microsomes. In kind it is in vitro ADME. As to conditions: substrate phenacetin (30 µM).

The target in a further series is hERG channels (Homo sapiens, UniProt Q12809). Nature of the series: Functional hERG blocking assay, patch clamp in CHO hERG cell line.
The target in another series is T2, CYP 2C19 (Homo sapiens, UniProt P33261).
T2 construct: from tissue; host or cells: human liver microsomes
Description: Cytochromes enzyme inhibition assay, human liver microsomes. In kind it is in vitro ADME. As to conditions: substrate S-mephenytoin (35 µM).

The nature of the next series: Water solubility. Conditions: PBS (pH 7.4), pH 7.4, aqueous buffer, kinetic from dmso stock.
Another series concerns the target T3, CYP 2C9 (Homo sapiens, UniProt P11712).
T3 construct: from tissue; host or cells: human liver microsomes
Nature of the series: Cytochromes enzyme inhibition assay, human liver microsomes. In kind it is in vitro ADME. As to conditions: substrate diclofenac (10 µM).

For a further series, the target named is T4, CYP 2D6 (Homo sapiens, UniProt P10635).
T4 construct: from tissue; host or cells: human liver microsomes
The series is described as above. Type of series: in vitro ADME. As to conditions: substrate bufuralol (10 µM).

In another series the target is T5, CYP 3A4 (Homo sapiens, UniProt P08684).
T5 construct: from tissue; host or cells: human liver microsomes
Described as above. In kind it is in vitro ADME.

In series [1] the test system is human ovarian cancer A2780. Nature of the series: Colony growth of A2780 TRCs in 90-Pa fibrin gels. Type of series: cell-based. As for the experimental part:
(§2) Salmon fibrinogen and thrombin were purchased from Reagent Proteins (CA, USA). 3D fibrin gels were prepared as described previously[5],[6]. In brief, fibrinogen was diluted into 2 mg mL^−1 with T7 buffer (pH 7.4, 50 mM Tris, 150 mM NaCl). Cells were detached from 2D rigid dishes and cell density was adjusted to 10^4 cells per mL. Fibrinogen and cell solution mixture were made by mixing the same volume of fibrinogen solution and cell solution, resulting in 1 mg mL^−1 fibrinogen and 5000 cells per mL in the mixture fibrin gels. A volume of 50 μL cell/fibrinogen mixture was seeded into each well of 96-well plate and mixed well with pre-added 1 μL thrombin (100 U mL^−1). The cell culture plate was then incubated in 37 °C cell culture incubator for 10 min. Finally, 200 μL of DMEM medium containing 10% FBS and antibiotics was added.

Series [2] concerns B16-F1 melanoma cells / TRCs. Description: Apoptosis by Annexin-V and PI flow cytometry. Conditions: 10 μM, 24 h after treatment. Type of series: cell-based, murine. As to the method:
For Annexin-V and PI staining to quantify cell apoptosis, treated TRCs were isolated from 3D fibrin gel by using 5 mg mL^−1 Dispase II (Sigma), cells were labeled with FITC-conjugated Annexin-V and PI according to the manufacturer’s instruction (Biolegend). Data were acquired on a BD Cantoll (BD biosciences) and analyzed with FlowJo software. For BrdU staining to quantify cell proliferation, cells were labeled with FITC-conjugated anti-BrdU antibody according to the manufacturer’s instruction (FITC BrdU Flow Kit, BD Biosciences) and then data were acquired on an Accuri C6 (BD Biosciences) and analyzed with BD Accuri C6 software.
Supplementary Figure 12. WYC-209 induces TRC apoptosis at 10 µM. (a)
Murine melanoma B16-F1 cells were seeded into 3D soft fibrin gels and then treated […]
The cells were collected after 24 hours and stained with FITC-conjugated Annexin-V and PI for apoptotic detection by flow cytometry. Apoptotic cells (%) = 100% - (Annexin-V-PI-) %. Mean ± s.e.m.; 3 separate experiments; *** P<0.001 (Student’s t-test). (b) Original images of flow cytometry of (a).
as §1
Supplementary Figure 38. WYC-209 induces tumor cell apoptosis. […]

The test system of series [3] is unselected B16-F1 melanoma cells. Description: Proliferation of unselected B16-F1 cells on 2D rigid dishes. In kind it is cell-based, murine. As to conditions: 10 μM, 48 hours. As to the method:
Supplementary Figure 9. WYC-209 detaches adherent melanoma cells on rigid plastic. Murine melanoma cell line B16-F1 were cultured on rigid plastics and treated with 10 μM WYC-209 and observed for 48 hours. Cell nucleus were stained with DAPI. DMSO: medium containing 0.1% DMSO. (a) Representative images of cells stained with DAPI 48 hrs after treatment. Scale bars, 500 μm. (b) Quantitation of cell numbers per view field of B16-F1 treated with WYC-209. Mean ± s.e.m.; n=5 samples; 3 independent experiments; *** P<0.001 (Student’s t-test).
as §1

In series [4] the test system is human breast cancer MCF-7. Description: Colony growth of MCF-7 TRCs in 90-Pa fibrin gels. In kind it is cell-based. As for the experimental part:
as §2

Where [5] appears, read: pretreated with 10 µM, at least 5 days.

pIC50: −log10 of the molar value. Converted amounts (≈) assume the structure as drawn.

T5 sequence (P08684 whole entry): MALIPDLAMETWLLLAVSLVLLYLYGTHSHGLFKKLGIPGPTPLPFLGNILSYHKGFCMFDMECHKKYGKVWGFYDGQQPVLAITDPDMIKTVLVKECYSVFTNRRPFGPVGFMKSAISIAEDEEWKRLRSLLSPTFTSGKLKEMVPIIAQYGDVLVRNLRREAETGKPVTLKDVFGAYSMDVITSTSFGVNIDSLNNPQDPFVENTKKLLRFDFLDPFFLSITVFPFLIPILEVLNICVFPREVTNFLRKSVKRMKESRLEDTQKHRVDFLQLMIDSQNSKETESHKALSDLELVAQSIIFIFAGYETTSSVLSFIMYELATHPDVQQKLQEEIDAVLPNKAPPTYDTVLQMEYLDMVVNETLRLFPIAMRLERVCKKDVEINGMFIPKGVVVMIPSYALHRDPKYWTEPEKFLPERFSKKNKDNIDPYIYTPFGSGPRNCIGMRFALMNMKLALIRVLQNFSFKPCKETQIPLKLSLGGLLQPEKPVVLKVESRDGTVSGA
T4 sequence (P10635 whole entry): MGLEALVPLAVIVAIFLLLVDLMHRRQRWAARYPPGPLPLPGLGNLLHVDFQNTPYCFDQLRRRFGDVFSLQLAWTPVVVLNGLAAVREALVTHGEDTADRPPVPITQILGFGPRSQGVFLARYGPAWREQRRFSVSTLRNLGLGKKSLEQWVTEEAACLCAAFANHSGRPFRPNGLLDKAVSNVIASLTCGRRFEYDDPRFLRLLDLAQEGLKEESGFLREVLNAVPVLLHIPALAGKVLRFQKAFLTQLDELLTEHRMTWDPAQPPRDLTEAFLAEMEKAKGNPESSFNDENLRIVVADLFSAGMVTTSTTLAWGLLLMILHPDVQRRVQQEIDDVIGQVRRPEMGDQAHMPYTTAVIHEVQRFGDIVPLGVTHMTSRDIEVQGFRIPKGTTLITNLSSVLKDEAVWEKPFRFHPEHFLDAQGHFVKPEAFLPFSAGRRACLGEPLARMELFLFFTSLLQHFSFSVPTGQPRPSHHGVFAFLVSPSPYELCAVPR
hERG channels, sequence (Q12809 whole entry): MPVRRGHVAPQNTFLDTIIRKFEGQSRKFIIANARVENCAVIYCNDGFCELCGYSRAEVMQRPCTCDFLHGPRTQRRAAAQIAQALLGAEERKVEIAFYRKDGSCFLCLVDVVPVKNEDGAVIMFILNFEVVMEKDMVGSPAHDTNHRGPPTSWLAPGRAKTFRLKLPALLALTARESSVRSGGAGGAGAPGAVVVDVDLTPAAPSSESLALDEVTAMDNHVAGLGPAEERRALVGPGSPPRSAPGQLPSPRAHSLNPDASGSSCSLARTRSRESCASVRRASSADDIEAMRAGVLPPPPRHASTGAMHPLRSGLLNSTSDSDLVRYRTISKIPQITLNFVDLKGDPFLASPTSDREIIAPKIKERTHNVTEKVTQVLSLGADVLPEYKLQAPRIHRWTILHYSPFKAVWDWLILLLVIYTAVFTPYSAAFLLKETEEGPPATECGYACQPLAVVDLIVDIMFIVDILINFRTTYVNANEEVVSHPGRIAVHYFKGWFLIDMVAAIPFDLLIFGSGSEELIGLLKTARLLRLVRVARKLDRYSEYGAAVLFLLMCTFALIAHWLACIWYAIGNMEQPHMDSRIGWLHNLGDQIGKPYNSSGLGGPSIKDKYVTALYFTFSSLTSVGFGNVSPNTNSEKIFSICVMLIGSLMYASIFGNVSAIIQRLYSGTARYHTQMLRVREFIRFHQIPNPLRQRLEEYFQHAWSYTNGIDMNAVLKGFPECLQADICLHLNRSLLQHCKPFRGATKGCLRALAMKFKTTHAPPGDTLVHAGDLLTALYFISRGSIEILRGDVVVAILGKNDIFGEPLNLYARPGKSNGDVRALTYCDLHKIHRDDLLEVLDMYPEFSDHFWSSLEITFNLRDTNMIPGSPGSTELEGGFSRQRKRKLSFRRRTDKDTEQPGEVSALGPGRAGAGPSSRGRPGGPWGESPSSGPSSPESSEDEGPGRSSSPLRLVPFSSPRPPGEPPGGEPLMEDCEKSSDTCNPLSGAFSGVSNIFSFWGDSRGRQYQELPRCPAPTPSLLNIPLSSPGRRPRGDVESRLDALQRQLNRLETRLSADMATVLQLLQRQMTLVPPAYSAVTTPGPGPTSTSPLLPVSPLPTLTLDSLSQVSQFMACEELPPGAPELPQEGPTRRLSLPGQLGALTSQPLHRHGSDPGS
T2 sequence (P33261 whole entry): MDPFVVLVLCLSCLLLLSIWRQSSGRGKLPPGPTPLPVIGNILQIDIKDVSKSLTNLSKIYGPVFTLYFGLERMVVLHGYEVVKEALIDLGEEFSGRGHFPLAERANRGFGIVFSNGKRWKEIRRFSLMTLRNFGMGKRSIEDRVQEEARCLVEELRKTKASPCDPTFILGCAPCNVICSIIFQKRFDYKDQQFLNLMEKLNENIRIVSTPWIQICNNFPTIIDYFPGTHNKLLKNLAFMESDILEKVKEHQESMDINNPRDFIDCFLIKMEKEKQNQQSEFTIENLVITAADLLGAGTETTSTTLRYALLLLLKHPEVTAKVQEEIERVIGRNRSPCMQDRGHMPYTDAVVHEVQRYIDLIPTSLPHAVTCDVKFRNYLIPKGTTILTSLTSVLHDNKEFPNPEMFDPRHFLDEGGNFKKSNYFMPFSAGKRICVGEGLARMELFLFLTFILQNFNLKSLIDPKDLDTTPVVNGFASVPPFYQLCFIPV
T3 sequence (P11712 whole entry): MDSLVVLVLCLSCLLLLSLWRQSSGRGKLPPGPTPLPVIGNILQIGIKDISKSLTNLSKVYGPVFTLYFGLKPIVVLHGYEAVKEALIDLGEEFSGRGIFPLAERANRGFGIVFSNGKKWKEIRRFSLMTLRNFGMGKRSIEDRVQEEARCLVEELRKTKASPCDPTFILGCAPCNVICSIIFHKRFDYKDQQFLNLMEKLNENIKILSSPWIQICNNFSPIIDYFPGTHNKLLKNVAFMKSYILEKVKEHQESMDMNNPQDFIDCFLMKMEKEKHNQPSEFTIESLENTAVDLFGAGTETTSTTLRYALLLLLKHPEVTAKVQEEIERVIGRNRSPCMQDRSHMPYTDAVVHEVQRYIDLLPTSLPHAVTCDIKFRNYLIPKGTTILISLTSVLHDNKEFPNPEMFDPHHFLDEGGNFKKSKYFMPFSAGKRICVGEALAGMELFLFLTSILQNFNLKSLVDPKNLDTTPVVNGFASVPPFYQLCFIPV
T1 sequence (P05177 whole entry): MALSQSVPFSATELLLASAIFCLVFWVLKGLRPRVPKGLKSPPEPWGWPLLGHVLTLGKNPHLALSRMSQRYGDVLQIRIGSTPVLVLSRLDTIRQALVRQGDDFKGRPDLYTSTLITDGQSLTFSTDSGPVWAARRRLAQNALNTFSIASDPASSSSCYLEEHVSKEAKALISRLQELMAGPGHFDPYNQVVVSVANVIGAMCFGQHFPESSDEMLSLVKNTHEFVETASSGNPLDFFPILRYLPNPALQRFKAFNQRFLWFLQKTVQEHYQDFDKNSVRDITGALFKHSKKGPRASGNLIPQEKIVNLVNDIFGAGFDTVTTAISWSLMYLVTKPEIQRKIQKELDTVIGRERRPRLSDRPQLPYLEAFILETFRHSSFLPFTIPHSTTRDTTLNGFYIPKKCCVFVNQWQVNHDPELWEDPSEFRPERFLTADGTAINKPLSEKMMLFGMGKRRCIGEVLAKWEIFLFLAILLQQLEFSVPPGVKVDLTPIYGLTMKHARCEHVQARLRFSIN

For `CCOC(=O)c1cnc(C#Cc2ccc3c(c2)C(C)(C)CC[S@+]3[O-])nc1` [WYC-209A], the “IC50 lower / potency higher than that of Tazarotene” value with B16-F1 TRCs was “about 10 fold”. In the series on B16-F1 TRCs, this compound displayed an inhibition at 10 µM of 100%. For the same compound, the pIC50 was 6.82 in the series on B16-F1 TRCs; less than 5.00 against CYP 1A2; less than 4.52 on hERG channels; less than 5.00 at CYP 2C19; less than 5.00 on CYP 2C9; less than 5.00 at CYP 2D6. For the same compound, the pIC50 at CYP 3A4 (first 3A4 column) and on CYP 3A4 (second 3A4 column) was less than 5.00 throughout. Also, the “Growth after re-plating into new soft fibrin gels without compound” value with B16-F1 TRCs (setting [5]) is reported as “none of the cells grew at all”; in the series with B16-F1 TRCs (pretreated with 0.1 or 1 μM), “some tumor cell growth”. Besides, the “HaCaT cell numbers on 2D rigid plastic” value in the series with HaCaT cells is recorded as “no reduction in cell numbers”. In the series with HaCaT cells, the “HaCaT colony growth in 3D soft fibrin gel” value (from here on “HaCaT colony growth”) was “still some colony growth”. Besides, the “Inhibitory effects towards non-cancerous HaCaT cells” value in the series on HaCaT cells is given as “much less inhibitory effects”. This compound came in with a solubility at 1 h in the series “Water solubility” of 89.4 µM (≈ 32.9 µg/mL).

As for `CCOC(=O)c1cnc(C#Cc2ccc3c(c2)C(C)(C)CC[S@@+]3[O-])nc1` [WYC-209B], in the series with B16-F1 TRCs, the “IC50 lower / potency higher than that of Tazarotene” value is reported as “about 10 fold”. Besides, in the series on B16-F1 TRCs, the inhibition at 10 µM stood at 100%. The pIC50 in the series with B16-F1 TRCs was 6.66; at CYP 1A2 it was less than 5.00; against hERG channels, less than 4.52; at CYP 2C19 it was less than 5.00; at CYP 2C9 it was less than 5.00; at CYP 2D6, less than 5.00. Further, the negative logarithm of the IC50 (pIC50) at CYP 3A4 (first 3A4 column) and on CYP 3A4 (second 3A4 column) was less than 5.00 throughout. Moreover, the “Growth after re-plating into new soft fibrin gels without compound” value in the series on B16-F1 TRCs (setting [5]) is given as “none of the cells grew at all”; in the series on B16-F1 TRCs (pretreated with 0.1 or 1 μM), “some tumor cell growth”. Also, the “HaCaT cell numbers on 2D rigid plastic” value with HaCaT cells is reported as “no reduction in cell numbers”. The “HaCaT colony growth” value in the series on HaCaT cells was “still some colony growth”. For the same compound, the “Inhibitory effects towards non-cancerous HaCaT cells” value in the series with HaCaT cells is “much less inhibitory effects”. For the same compound, the solubility at 1 h in “Water solubility” was determined as 88.1 µM (≈ 32.5 µg/mL).

As for `CCOC(=O)c1cnc(C#Cc2ccc3c(c2)C(C)(C)CC[S+]3[O-])nc1` (centres unmarked) [WYC-209], the “IC50 lower / potency higher than that of Tazarotene” value in the series with B16-F1 TRCs is recorded as “about 10 fold”. The inhibition at 10 µM came to 100% in the series on B16-F1 TRCs; 100% in [1] (A2780, 10 μM); 100% in [4] (MCF7, MCF-7, 10 μM). For the same compound, the pIC50 was 6.72 with B16-F1 TRCs; 6.64 in series [1] (0 h, A2780, treated on day 0); 7.00 in series [4] (MCF7, 0 h, MCF-7, treated on day 0). For the same compound, the “Duration of effect after washout (long-lasting)” value with B16-F1 TRCs (melanoma TRCs re-plated in fresh medium without compound) was more than 5 days. Moreover, the “Growth after re-plating into new soft fibrin gels without compound” value is recorded as “none of the cells grew at all” in the series on B16-F1 TRCs (setting [5]) and “some tumor cell growth” with B16-F1 TRCs (pretreated with 0.1 or 1 μM). In addition, the “HaCaT cell numbers on 2D rigid plastic” value in the series on HaCaT cells is recorded as “no reduction in cell numbers”. In addition, the “HaCaT colony growth” value with HaCaT cells is given as “still some colony growth”. The “Inhibitory effects towards non-cancerous HaCaT cells” value in the series on HaCaT cells is recorded as “much less inhibitory effects”. Moreover, the “Apoptosis of un-selected melanoma cells or melanoma TRCs” value in [2] is recorded as ~ 95%. The “Proliferation of unselected B16-F1 cells on 2D rigid dishes” value in series [3] is given as “completely inhibited”.
